According to patent publication US12350250B2, “Aggrelytes for treating ocular conditions” (The Regents of the University of Colorado, a Body Corporate, priority 2022, dated 2025):

Assays:
mouse lenses = assay: AcK-bearing proteins in WS fraction of treated mouse lenses (Western blot); conditions: 1 mM, 24 hours, vs untreated controls (p<0.01) and Aggrelyte-2C (p<0.001)
Description: Mouse and human lenses were treated with aggrelytes as described in Example 10. Water-soluble proteins from mouse and human lenses were obtained as described in Example 13. Effects of aggrelyte treatment on AcK-bearing proteins in the WS fractions were evaluated by Western blot analysis as described in Example 5. For Western blotting, 10-20 μg of protein from each lens sample was used and each sample was separately processed three times and analyzed.

γD-crystallin (γDC) = molecular target: T1, γD-crystallin (γDC) (Homo sapiens, UniProt P07320); assay: AGE formation (CML, CEL) in glycated recombinant γD-crystallin; type: biochemical; conditions: γDC 2 mg/mL pretreated with 1.25 mM aggrelyte-2 for 24 h, glycating mixture 5 days
T1 sequence (P07320 1-174): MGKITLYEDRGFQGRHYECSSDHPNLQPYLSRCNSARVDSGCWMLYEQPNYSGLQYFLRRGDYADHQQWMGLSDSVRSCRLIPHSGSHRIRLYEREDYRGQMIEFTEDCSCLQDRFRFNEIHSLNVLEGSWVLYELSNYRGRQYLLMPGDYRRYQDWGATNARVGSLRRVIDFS
Description: To investigate the effects of Aggrelyte-2 on advanced glycation end product (AGE) formation, human recombinant αAC (3 mg/mL) or γD-crystallin (γDC, 2 mg/mL) in PBS was treated with or without aggrelyte-2 (10 mM for αAC and 1.25 mM for γDC) for 24 h, dialyzed against 100 mM sodium phosphate buffer pH 7.4 for 16 h and incubated with or without a glycating mixture (2 mM ascorbate, 25 mM D-glucose and 250 μM methylglyoxal) in 100 mM sodium phosphate buffer pH 7.4 for 5 days (after adding 0.002% sodium azide) at 37° C. The incubated proteins were dialyzed against PBS for 16 h, treated with 100 mM sodium borohydride for 1 h at room temperature, and acid hydrolyzed. Two AGEs, N^−-carboxymethyllysine (CML) and N^□-carboxyethyllysine (CEL), were measured by LC-MS/MS as described above. Each sample was separately processed 3-4 times.

αA-crystallin (αAC) = molecular target: T2, αA-crystallin (αAC) (Homo sapiens, UniProt P02489); assay: Relative protein acetylation capability on recombinant αAC; type: biochemical; conditions: 500 μM acetylating agent, αAC 3 mg/mL, 24 hours, 37° C.
T2 sequence (P02489 1-173): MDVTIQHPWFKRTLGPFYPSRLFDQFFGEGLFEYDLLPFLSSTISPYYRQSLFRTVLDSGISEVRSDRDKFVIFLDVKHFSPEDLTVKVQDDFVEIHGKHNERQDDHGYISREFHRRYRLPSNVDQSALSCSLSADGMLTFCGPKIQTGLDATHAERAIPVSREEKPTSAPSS
Description: The relative ability of Aggrelyte-2 to acetylate lysine residues in proteins was investigated using αA-crystallin (αAC). Human recombinant αAC (3 mg/mL PBS) was incubated in 50 mM sodium phosphate buffer, pH 7.4, for 24 hours at 37° C. while shaking without or with 500 μM acetylating agent (Aggrelyte-2, acetyl-CoA, acetic anhydride, or aspirin), dialyzed against PBS for 24 hours at 4° C.

[1] = molecular target: T3, human lens cortical proteins (Homo sapiens, UniProt Q71U36); assay: Identification of AcK sites in proteins of Aggrelyte-2-treated lens (AcK peptide enrichment, LC-MS/MS); parameters: key to Fold Change (Aggrelyte-2 vs Control) [Total Sum]: *: were not detected in the control lens but were prominent in the Aggrelyte-2-treated lens; conditions: Tubulin alpha-1A chain K370
T3 construct: from tissue; host or cells: cortex of a human lens from a donor, treated ex vivo
T3 sequence (Q71U36 whole entry): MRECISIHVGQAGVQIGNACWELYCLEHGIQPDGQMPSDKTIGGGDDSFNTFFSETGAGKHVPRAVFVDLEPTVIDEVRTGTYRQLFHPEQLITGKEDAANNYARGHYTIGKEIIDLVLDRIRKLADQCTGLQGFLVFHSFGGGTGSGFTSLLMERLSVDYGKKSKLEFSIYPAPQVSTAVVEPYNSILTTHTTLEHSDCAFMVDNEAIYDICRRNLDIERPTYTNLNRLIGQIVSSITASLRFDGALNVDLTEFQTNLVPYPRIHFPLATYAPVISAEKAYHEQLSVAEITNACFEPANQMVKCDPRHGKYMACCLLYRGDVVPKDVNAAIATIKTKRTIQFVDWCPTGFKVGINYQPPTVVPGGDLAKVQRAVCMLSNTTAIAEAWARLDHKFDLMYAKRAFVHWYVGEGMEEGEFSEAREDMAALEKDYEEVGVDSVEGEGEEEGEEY
Description: The AcK modification sites and relative levels at those sites in the Aggrelyte-2-treated and untreated (control) human lens cortical proteins were evaluated in the lens (from a donor) that had the largest overall AcK differential measured by Western blot analysis (blot not shown; densitometric summary in FIG. 14B) and LC-MS/MS (FIG. 15B). Each sample (315 μg) was spiked with 200 ng of acetylated bovine serum albumin (AcBSA) protein standard, reduced, alkylated, and digested with trypsin using a urea-based method and then desalted using a C18 resin before being lyophilized. The samples were then immunoprecipitated according to the manufacturer's protocol for the PTMScan Acetyl-Lysine Motif Kit No. 13416 (Cell Signaling Technology). Peptides were purified with a Pierce C18 spin column (Thermo Fisher Scientific) and dried in a Speed Vac concentrator at 45° C. The peptides were resuspended in 3% acetonitrile in 0.1% formic acid for MS analysis.
The enriched AcK-bearing peptides were loaded onto a 2 cm PepMap 100 nanoviper trapping column and chromatographically resolved with a 0.075×250 mm, […] Acclaim PepMap RSLC reversed-phase nanocolumn (Thermo Scientific) using a 1290 Infinity II LC system equipped with a nanoadapter (Agilent). The mobile phase consisted of water+0.1% formic acid (A) and 90% aqueous acetonitrile+0.1% formic acid (B). Samples were loaded onto the trapping column at 3.0 μL/min for 3.5 min under initial conditions before being chromatographically separated at an effective flow rate of 330 nL/min using a gradient of 3-8% B over 3 min, 8-30% B over 33 min, and 30-40% B over 4 min at 40° C. The gradient was followed by a column wash at 75% B for 5 min. Data were collected using a 6550 Q-TOF equipped with a nanosource (Agilent Technologies) operated using intensity-dependent CID MS/MS to generate peptide identifications. MS/MS data were collected in positive ion polarity over a mass range of 290-1700 m/z at a scan rate of 8 spectra/second for MS scans and a mass range of 50-1700 m/z at a scan rate of 3 spectra/second for MS/MS scans. All charge states, except singly charged species, were allowed during MS/MS acquisition.
Tandem mass spectra were extracted, searched, and summarized using PEAKS X+ Studio 10.5 software (Bioinformatics Solutions Inc., Waterloo, Ontario). The spectra were searched against the UniProtKB SwissProt [2022_02] Homo sapiens database, allowing for up to three missed semitryptic cleavages with fixed carbamidomethylation of cysteine and a maximum of four variable modifications of deamidation of asparagine and glutamine, oxidation of methionine and/or acetylation of lysine per peptide. The allowed monoisotopic peptide mass tolerance was ±15.0 ppm, and the MS/MS tolerance was ±0.05 da. A false discovery rate (FDR) filter of 0.5% was used corresponding to a −10 log P score ≥19.3.
The MS-only level data from the LC-MS/MS analyses were extracted and aligned using Profinder V.B.10.01 software (Agilent Technologies). Retention times, neutral masses, and chemical formulas generated from identified acetyl peptides were used to perform batch-targeted feature extraction. Data were extracted with an ion count threshold of two or more ions, 5000 counts, and a score threshold of 70. The score was based on the quality of the mass accuracy, isotope abundances, and isotope spacing of compounds based on the chemical formula of the target peptides within a specified retention time window. Using the peptide isotope model, charge states 2-6 were allowed with H^+ and Na^+ charge carriers. The retention time window and mass window alignment tolerances were set to 0.4 min and 10 ppm, respectively. The extracted peptide peak areas were then used to determine a fold change value in the treated vs. control samples to help identify potential AcK sites that may be affected by aggrelyte-2. Due to a lack of statistical power, a three-fold change filter was used as a sufficient cutoff to identify potential AcK sites of interest. […]

COC(=O)[C@H](CSC(C)=O)NC(C)=O [Aggrelyte-2, N,S-diacetyl-L-cysteine methyl ester]
AcK modifications in WS proteins (Western blot) (mouse lenses): significantly higher AcK modifications
levels of both CML and CEL (AGEs) after glycation (γD-crystallin (γDC)): significantly reduced (p<0.0001)
rank order of acetylating agents (αA-crystallin (αAC)): followed by Aggrelyte-2, aspirin, and acetyl-CoA
Fold Change (Aggrelyte-2 vs Control) [Total Sum] [1]: *
Aggrelyte-2 treated Area ([1]; lens of donor): 4.24E+04
